Experiments:
Assay in all cases: NCI single dose (10 µM) SRB screen
[1] = tested on: CCRF-CEM; type: cell-based, human; conditions: leukaemia, 48 h
[2] = tested on: HL-60(TB); type: cell-based, human; conditions: leukaemia, 48 h
[3] = tested on: K-562; type: cell-based, human; conditions: leukaemia, 48 h
[4] = tested on: MOLT-4; type: cell-based, human; conditions: leukaemia, 48 h
[5] = tested on: RPMI-8226; type: cell-based, human; conditions: leukaemia, 48 h
[6] = tested on: SR; type: cell-based, human; conditions: leukaemia, 48 h
[7] = tested on: A549/ATCC; type: cell-based, human; conditions: non-small cell lung cancer, 48 h
[8] = tested on: EKVX; type: cell-based, human; conditions: non-small cell lung cancer, 48 h
[9] = tested on: HOP-62; type: cell-based, human; conditions: non-small cell lung cancer, 48 h
[10] = tested on: HOP-92; type: cell-based, human; conditions: non-small cell lung cancer, 48 h
[11] = tested on: NCI-H226; type: cell-based, human; conditions: non-small cell lung cancer, 48 h
[12] = tested on: NCI-H23; type: cell-based, human; conditions: non-small cell lung cancer, 48 h
[13] = tested on: NCI-H322M; type: cell-based; conditions: non-small cell lung cancer, 48 h
[14] = tested on: NCI-H460; type: cell-based, human; conditions: non-small cell lung cancer, 48 h
[15] = tested on: NCI-H522; type: cell-based, human; conditions: non-small cell lung cancer, 48 h
[16] = tested on: COLO 205; type: cell-based, human; conditions: colon cancer, 48 h
[17] = tested on: HCC-2998; type: cell-based, human; conditions: colon cancer, 48 h
[18] = tested on: HCT-116; type: cell-based, human; conditions: colon cancer, 48 h
[19] = tested on: HCT-15; type: cell-based, human; conditions: colon cancer, 48 h
[20] = tested on: HT29; type: cell-based, human; conditions: colon cancer, 48 h
[21] = tested on: KM12; type: cell-based, human; conditions: colon cancer, 48 h
[22] = tested on: SW-620; type: cell-based, human; conditions: colon cancer, 48 h
[23] = tested on: SF-268; type: cell-based, human; conditions: CNS cancer, 48 h
[24] = tested on: SF-295; type: cell-based, human; conditions: CNS cancer, 48 h
[25] = tested on: SF-539; type: cell-based, human; conditions: CNS cancer, 48 h
[26] = tested on: SNB-19; type: cell-based, human; conditions: CNS cancer, 48 h
[27] = tested on: SNB-75; type: cell-based, human; conditions: CNS cancer, 48 h
[28] = tested on: U251; type: cell-based, human; conditions: CNS cancer, 48 h
[29] = tested on: LOX IMVI; type: cell-based, human; conditions: melanoma, 48 h
[30] = tested on: MALME-3M; type: cell-based, human; conditions: melanoma, 48 h
[31] = tested on: M14; type: cell-based, human; conditions: melanoma, 48 h
[32] = tested on: MDA-MB-435; type: cell-based, human; conditions: melanoma, 48 h
[33] = tested on: SK-MEL-2; type: cell-based, human; conditions: melanoma, 48 h
[34] = tested on: SK-MEL-28; type: cell-based, human; conditions: melanoma, 48 h

COC(=O)C1=C(C)NC(C)=C(C(=O)OC(C)(C)C)C1c1cccc(C#N)c1 (racemic) [Compound 2c, (±)-3-Tert-butyl 5-Methyl 4-(3-cyanophenyl)-2,6-dimethyl-1,4-dihydropyridine-3,5-dicarboxylate]
15%: GI% SR [6]
10%: GI% HOP-92 [10]
– (Only GI% ≥ 10 are shown): GI% CCRF-CEM [1] | GI% HL-60(TB) [2] | GI% K-562 [3] | GI% MOLT-4 [4] | GI% A549/ATCC [7] | GI% EKVX [8] | GI% HOP-62 [9] | GI% NCI-H226 [11] | GI% NCI-H23 [12] | GI% NCI-H322M [13] | GI% NCI-H460 [14] | GI% NCI-H522 [15] | GI% COLO 205 [16] | GI% HCC-2998 [17] | GI% HCT-116 [18] | GI% HCT-15 [19] | GI% HT29 [20] | GI% KM12 [21] | GI% SW-620 [22] | GI% SF-268 [23] | GI% SF-295 [24] | GI% SF-539 [25] | GI% SNB-19 [26] | GI% U251 [28] | GI% LOX IMVI [29] | GI% MALME-3M [30] | GI% M14 [31] | GI% MDA-MB-435 [32] | GI% SK-MEL-2 [33] | GI% SK-MEL-28 [34]
27%: GI% SNB-75 [27]
12%: GI% RPMI-8226 [5]

Source: PMC9481151, “Discovery of new symmetrical and asymmetrical nitrile-containing 1,4-dihydropyridine derivatives as dual kinases and P-glycoprotein inhibitors: synthesis, in vitro assays, and in silico studies” (Journal of Enzyme Inhibition and Medicinal Chemistry, 2022)
